# Source: PubChem BioAssay (NCI)
# Where “and” joins values, the source holds several entries; their conditions need not be identical. Equal entries are not always repeated.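 Five compound concentrations were applied to cells in 96-well plates for 48 hours; endpoints were derived by simple linear interpolation of the resulting dose-response curve. Abbreviation: GI50, concentration required for 50% inhibition of growth. TGI marks complete inhibition of growth.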
# Tests used:
# Assay in all cases: DTP human tumour cell line panel, 48 h
# [1] = tested on: OVCAR-5 ovarian
# [2] = tested on: HOP-62 NSCLC
# [3] = tested on: OVCAR-3 ovarian
# [4] = tested on: HT29 colon
# [5] = tested on: LOX IMVI melanoma
# [6] = tested on: DU-145 prostate
# [7] = tested on: ACHN renal
# [8] = tested on: A549 NSCLC
# [9] = tested on: SK-MEL-5 melanoma
# [10] = tested on: U251 CNS
Compound,TGI [1],TGI [2],TGI [3],TGI [4],TGI [5],TGI [6],TGI [7],TGI [8],TGI [9],TGI [10],GI50 [1],GI50 [2],GI50 [5],GI50 [6],GI50 [7],GI50 [8],GI50 [9],GI50 [10],GI50 [3],GI50 [4]
CCOc1ccc2c(C)cc(=O)oc2c1,> 100 µM,> 100 µM,> 100 µM,> 100 µM,> 100 µM,> 100 µM,> 100 µM,> 100 µM,> 100 µM,> 100 µM,–,–,–,–,–,–,–,–,–,–
Cn1c2ccccc2c(=O)c2c(O)cc3c(c21)CC(C1(C)CO1)O3 (stereo not drawn),23.4 µM,11.3 µM,12.9 µM,20 µM,0.0613 µM,36.1 µM,5.73 µM,28.2 µM,3.88 µM,11.7 µM,–,–,–,–,–,–,–,–,–,–
C=C1COC(O)(C2OCOC(C3CC(=O)NC(=O)C3)C2O)C1C (stereo not drawn),0.0499 µM and 0.0546 µM,0.0357 µM and 0.0382 µM,0.046 µM,0.0207 µM and 0.0511 µM,0.00553 µM and 0.0217 µM,0.0616 µM,0.198 µM and 0.0355 µM,0.0303 µM and 0.0326 µM,0.00459 µM and 0.00385 µM,0.0376 µM and 0.0739 µM,0.00331 µM and 0.017 µM,0.00277 µM,0.00234 µM,0.0125 µM,0.00352 µM,0.00282 µM,0.00166 µM,0.00275 µM,–,–
O=S(=O)(c1ccc(Br)cc1)N1CCN(S(=O)(=O)c2ccc(Br)cc2)CC1,> 100 µM,> 100 µM,> 100 µM,> 100 µM,> 100 µM,> 100 µM,> 100 µM,> 100 µM,> 100 µM,> 100 µM,–,–,–,–,–,–,–,–,–,–
CC(C)(CCN=C(N)Nc1ccccn1)c1ccc(C(F)(F)F)cc1,30.7 µM,30.2 µM,29.5 µM,24 µM,27.6 µM,31.8 µM,26.5 µM,31.6 µM,25 µM,30.4 µM,15.8 µM,15.7 µM,14.2 µM,16.2 µM,13.5 µM,16.5 µM,12 µM,16.4 µM,13.7 µM,10.4 µM
COc1cc2nc(-c3ccc(Cl)cc3)cc(OCCCN3CCCC3)c2cc1OC,13.7 µM,10.6 µM,13.1 µM,4.17 µM,0.446 µM,13.8 µM,8.39 µM,12.4 µM,2.16 µM,14.5 µM,1.03 µM,1.38 µM,0.191 µM,2.15 µM,1.93 µM,1.52 µM,0.961 µM,1.79 µM,2.71 µM,0.454 µM
COc1ccc2c(Cc3c4ccccc4cc4ccccc34)cncc2c1O,> 57.4 µM,22.4 µM,8.97 µM,33.5 µM,8.5 µM,> 22.4 µM,27.3 µM,> 39.8 µM,3.05 µM,7.71 µM,–,–,–,–,–,–,–,–,–,–
c1cc(CSSCc2ccncc2)ccn1,> 100 µM,> 100 µM,> 100 µM,> 100 µM,> 100 µM,> 66.4 µM,> 100 µM,> 100 µM,56.6 µM,> 70.9 µM,–,–,–,–,–,–,–,–,–,–
C=C1CC[C@@H]2[C@](C)(COC(C)=O)[C@H](OC(C)=O)CC[C@@]2(C)[C@@H]1CC(Nc1ccc(S(=O)(=O)Nc2cc(C)on2)cc1)C1=CCOC1=O (stereo partly drawn),4.05 µM,22.9 µM,3.09 µM,3.09 µM,2.54 µM,6.53 µM,3.48 µM,15.4 µM,4.65 µM,3.4 µM,2.16 µM,8.88 µM,1.18 µM,2.43 µM,1.71 µM,4.75 µM,2.11 µM,1.89 µM,1.66 µM,1.58 µM
CC[C@@H](C(=O)[C@H](C)[C@H](O)[C@@H](C)[C@H]1O[C@H]([C@@H](CC)C(=O)O)CC[C@H]1C)C1O[C@]2(C=C[C@@H](O)[C@]3(CC[C@@](C)([C@H]4CC[C@](O)(CC)[C@H](C)O4)O3)O2)[C@H](C)C[C@@H]1C (stereo partly drawn),69.2 µM,21.6 µM,18.8 µM,30.2 µM,6.56 µM,29.3 µM,40.2 µM,21.6 µM,0.274 µM,11.5 µM,1.07 µM,0.532 µM,0.706 µM,1.06 µM,0.77 µM,0.267 µM,0.102 µM,0.113 µM,0.0842 µM,0.357 µM
C/C(=N\NC(=S)N1CCN(C2CCCCCC2)CC1)c1ccccn1,3.01 µM,1.41 µM,1.74 µM,1.84 µM,5.29 µM and 1.83 µM,2.44 µM,2.7 µM,1.86 µM,8.38 µM and 1.01 µM,3 µM and 2.1 µM,–,0.0198 µM and < 0.0156 µM,0.0173 µM,–,0.00121 µM,–,0.0204 µM,< 0.001 µM,–,–
